# Test results as given in patent US7851444B2 (priority 2002, dated 2010).
# Tested on: CCI rat
# Conditions: in vivo
smiles,measurement,value
CN1CC[C@]23c4c5ccc(O)c4O[C@H]2[C@@H](O)C=C[C@H]3[C@H]1C5 [morphine],antinociceptive effects in a rat model of neuropathic pain,produced antinociceptive effects
same,duration of antinociceptive effects,3 h
same,selectivity of antinociceptive effects between paws,selective for the ipsilateral over the contralateral paw
